Source: publication PMC10950880, “The RsfSR two-component system regulates SigF function by monitoring the state of the respiratory electron transport chain in Mycobacterium smegmatis” (The Journal of Biological Chemistry, 2024)

Tests used:
[1] = biological target: T1, RsfSTr (truncated RsfS, MSMEG_6130) (Mycolicibacterium smegmatis, UniProt A0R5B3); assay: autophosphorylation and phosphotransfer to RsfR, Phos-tag SDS-PAGE; type: biochemical; conditions: 1 mM ATP, 300 mM Tris-HCl pH 8, 50 mM KCl, 10 mM MgCl2, 30 C; covalent
T1 construct: kinase domain only (amino acids 190-525), lacks CHASE3 and N-terminal region; C-terminal His6 kept; from E. coli BL21; partially purified
T1 sequence (A0R5B3 entry or part of it): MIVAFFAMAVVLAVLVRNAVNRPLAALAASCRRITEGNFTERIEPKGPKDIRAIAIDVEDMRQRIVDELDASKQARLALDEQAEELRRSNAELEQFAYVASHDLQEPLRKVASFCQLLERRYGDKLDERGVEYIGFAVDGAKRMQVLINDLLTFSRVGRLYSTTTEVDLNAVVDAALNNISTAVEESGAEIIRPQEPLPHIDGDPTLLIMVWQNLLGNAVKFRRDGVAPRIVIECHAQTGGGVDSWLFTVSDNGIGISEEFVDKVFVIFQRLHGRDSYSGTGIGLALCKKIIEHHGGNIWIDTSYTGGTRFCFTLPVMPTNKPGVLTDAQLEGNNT

RsfR (MSMEG_6131) = biological target: T2, RsfR (MSMEG_6131) (Mycolicibacterium smegmatis, UniProt A0R5B4); assay: phosphorylation of RsfR by acetyl phosphate (Phos-tag SDS-PAGE); RsfR then tested on P-RsfB; type: biochemical; conditions: 40 mM acetyl phosphate, 300 mM Tris-HCl pH 8.0, 50 mM KCl, 10 mM MgCl2, no ATP, 30 C; phosphodonor, covalent
T2 construct: C-terminal His6 kept; from E. coli BL21 (DE3), pT7-7rsfR
T2 sequence (A0R5B4 1-402): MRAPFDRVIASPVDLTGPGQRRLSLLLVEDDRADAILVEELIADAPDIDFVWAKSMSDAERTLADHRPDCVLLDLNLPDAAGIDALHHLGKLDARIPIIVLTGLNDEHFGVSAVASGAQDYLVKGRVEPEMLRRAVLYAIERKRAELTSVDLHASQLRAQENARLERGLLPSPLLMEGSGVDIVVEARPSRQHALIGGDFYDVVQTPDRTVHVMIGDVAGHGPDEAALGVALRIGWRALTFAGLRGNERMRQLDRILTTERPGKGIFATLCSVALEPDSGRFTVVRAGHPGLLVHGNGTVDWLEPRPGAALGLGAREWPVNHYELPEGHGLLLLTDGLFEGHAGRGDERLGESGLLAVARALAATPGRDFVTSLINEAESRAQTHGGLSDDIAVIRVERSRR

## Nc1ncnc2c1ncn2[C@@H]1O[C@H](COP(=O)(O)OP(=O)(O)OP(=O)(O)O)[C@@H](O)[C@H]1O [ATP]
[1]
  autophosphorylation and phosphotransfer to RsfR, Phos-tag SDS-PAGE: RsfSTr was autophosphorylated in the reaction mixture

## CC(=O)OP(=O)(O)O [acetyl phosphate]
RsfR (MSMEG_6131)
  RsfR phosphorylation by acetyl phosphate: Acetyl phosphate phosphorylated purified RsfR less efficiently than RsfSTr
